Data from patent publication US10005815B2, “Biologically cleavable tetrapeptide linking agents” (Arrowhead Madison Inc., priority 2015, dated 2018).
Non-standard residues stand in square brackets, D forms with d. Residues, ends and D or L forms follow the SMILES beside them. *: point of attachment. CH3O(CH2CH2O)11CH2CH2CO = COCCOCCOCCOCCOCCOCCOCCOCCOCCOCCOCCOCCC(=O)*; X1 = O=[N+]([O-])c1ccc(NCCN*)cc1; Cit = NC(=O)NCCC[C@H](N)C(=O)O

How the values were obtained:
Factor VII = test: Serum Factor VII activity after DPC-mediated siRNA delivery in mice; type: in vivo; details: for effectiveness as modifying agent in DPC-mediated siRNA delivery: Factor VII knockdown; for Relative F VII activity: polymer-siRNA conjugate modified with the PEG-peptide agent and CDM-NAG, 1 mg/kg polymer, 0.25 mg/kg siRNA, day 5
Description: PEG tetrapeptide modifying agents were synthesized by using a PEG group at R^5 and an activated ester at R^7 (formula V). Membrane active polyamines (see below) were modified with Factor VII siRNA, CDM-NAG and the indicated tetrapeptide (45b, 46) or tripeptide control (47) modifying agents as previously described (U.S. Pat. Nos. 8,137,695 and 8,426,554) to form a dynamic polyconjugate delivery polymer. 1 mg/kg polymer conjugated to 0.25 mg/kg siRNA was then injected into mice. At day 5, samples were collected and assayed for Factor VII. Knockdown of Factor VII requires cleavage of the modifying agent from the polyamine at a rate similar to the previously described CDM masking agents and dipeptide-PABC masking agents. […] For dynamic polyconjugate delivery polymers modified with PEG12 functionalized tetrapeptides, the order of increasing knockdown in vivo (45b>46>47) correlated with in vitro kinetic results. Validation of the in vitro model for kinetic evaluation was shown by the results obtained in animal studies.
Polyacrylate EAB in 5 mM pH 8.0 HEPES buffer was modified 1.5 wt % with a N-hydroxysuccinimidyl activated PEG4 azide (Azido-dPEG4-NHS ester from Quanta Biodesign) to provide azide groups for subsequent attachment of siRNA. The azide-modified polymer was then diluted to 5 mg/mL in 60 mg/mL HEPES base. To this solution was added 15 mg/mL (3 wt equivalents) of the indicated protease-cleavable PEG modifying reagents (the described herein tetrapeptide agents or PEG12-FCit-PABC-PNP (8426554) to modify 40-50% of available amine groups. After 1 h, DBCO-modified rodent factor VII siRNA (0.25 wt eq relative to polymer) was added to polymer solution. After incubation overnight, conjugates were further modified by addition of molar excess relative to available amine groups of an N-acetylgalactosamine derivative CDM-NAG, NAG-A^4-A^3-A^2-A^1-NHS or NAG-ACit-PABC-PNP (U.S. Pat. No. 8,426,554, Rozema et al. 2015, Carlson et al. 2015), and incubated for 30 min to reversibly modify remaining polymer EAB amines.
Male Wistar Han rats and female ICR mice, 6 to 8 weeks old, were obtained from Harlan Sprague-Dawley, (Indianapolis, Ind.). Animals were handled in accordance with animal used protocols approved by the Animal Care and Use Committee at Arrowhead Madison Inc. Rodents were maintained on a 12 hours light/dark cycle with free access to water and food (Harlan Teklad Rodent Diet, Harlan, Madison, Wis.). Animals were injected with 1 mg/kg polymer conjugated to 0.25 mg/kg siRNA. Samples were collected 5 days post injection.
FVII activity in serum was measured with a chromogenic method using a test kit (BIOPHEN VII, Aniara, Mason, Ohio) following manufacturer's recommendations. Absorbance of colorimetric development was measured using a Tecan Safire-2 microplate reader at 405 nm.

rat liver S9 extract = test: Digestion with rat liver S9 extract; type: biochemical; details: normalized to compound 23
Description: (§1) Proteolytic digestion experiments were carried out at a fixed substrate concentration (0.51 μmol) using liver lysosomal (enzyme) extract (0.45 μg/μL) in a 25 mM MES solution buffered to pH 5 containing 1% CHAPS and 1.8 mM DTT incubated at 37° C. Enzyme extract was activated in the presence of DTT for 15 minutes at 37° C. prior to addition of AENA labeled peptide substrates. At various time points, up to 26 h, 20 μL aliquots were removed and acidified to a pH of 3 with TFA. Analysis of fractions was performed using HPLC with a Aquasil C18 reverse-phase column (250×4.6, Thermofisher, Waltham, Mass.), monitored at 390 nm and 335 nm for AENA and EDANS respectively. Elution was performed with a gradient of acetonitrile and water buffered with 0.1% formic acid. Generation of unmodified reporter molecule was measured. To minimize freeze thaw cycles the lysosomal extract was dispensed into multiple aliquots prior to storage at −80° C. A new aliquot was employed for each study and used immediately upon thawing. Lysosomal extract was sourced from female Hans Wistar rats by differential density gradient centrifugation (Graham et al. 2000). Protein concentration of lysosomal extract was determined by standard BCA protein assay protocols. Compound 60 was used for normalization of velocity between experiments (Tables 2-4). […] Normalized sample velocity was calculated as: [(average compound 60 velocity[…]experimental compound 60 velocity)]×sample experimental velocity.
(§2) The observed rates of cleavage were not dependent on the source of proteolytic enzymes. The order of increasing velocity (23>30>37>42) was maintained when digested using commercially available rat and human liver S9 extract (Xenotech LLC, Lenexa, Kans.) (Table 5). Thus rates of cleavage are expected to be similar across different species and cell types.

human liver S9 extract = test: Digestion with human liver S9 extract; type: biochemical; details: normalized to compound 23
Description: as §1, §2

[1] = tested on: liver lysosomal (enzyme) extract; test: Digestion assay with rat liver lysosomal extract; type: biochemical; details: for Sample Velocity / Normalized Velocity: AENA substrates; for Sample Velocity: linear rate of reporter generation at <50% completion, pH 5, 37° C.; for Normalized Velocity: normalized with compound 60 velocity (average 123.8 nmol/h); for Relative Velocity, Lysosomal Extract: normalized to compound 23
Description: Various amino acid combinations, tetrapeptides, were used to link various first moieties (R^5) and an AENA report group second compound (R^6) to form assay substrates (substrates). Cleavage rate of the peptides were evaluated by analysis of digestion of the substrates in the presence of rat lysosomal extract.
Reporting groups were coupled to the C-terminus of the peptide substrates as described above for UV-vis monitoring to explore the influence of amino acid sequence on kinetics of peptide degradation by HPLC. N-(2-aminoethyl)-4-nitroaniline (AENA) or N-(aminoethyl)-5-napthylamine-1-sulfonic acid (EDANS) were used as reporting groups for HPLC monitoring as neither absorptivity nor lambda maximum were affected for either after cleavage from the peptide. The N-terminus of each peptide substrate was modified with either methoxy polyethylene glycol (PEG12) or N-acetyl galactosamine (NAG(OR)3) (FIG. 1).
Proteolytic digestion experiments were carried out at a fixed substrate concentration (0.51 μmol) using liver lysosomal (enzyme) extract (0.45 μg/μL) in a 25 mM MES solution buffered to pH 5 containing 1% CHAPS and 1.8 mM DTT incubated at 37° C. Enzyme extract was activated in the presence of DTT for 15 minutes at 37° C. prior to addition of AENA labeled peptide substrates. At various time points, up to 26 h, 20 μL aliquots were removed and acidified to a pH of 3 with TFA. Analysis of fractions was performed using HPLC with a Aquasil C18 reverse-phase column (250×4.6, Thermofisher, Waltham, Mass.), monitored at 390 nm and 335 nm for AENA and EDANS respectively. Elution was performed with a gradient of acetonitrile and water buffered with 0.1% formic acid. Generation of unmodified reporter molecule was measured. To minimize freeze thaw cycles the lysosomal extract was dispensed into multiple aliquots prior to storage at −80° C. A new aliquot was employed for each study and used immediately upon thawing. Lysosomal extract was sourced from female Hans Wistar rats by differential density gradient centrifugation (Graham et al. 2000). Protein concentration of lysosomal extract was determined by standard BCA protein assay protocols. […]
Rate (also called velocity of degradation or velocity) was extrapolated during early linear turnover (Table 2). As used herein, rate is defined as the linear rate of reporting group generation at less than 50% completion (digestion rate was assumed to be linear at less than 50% completion). For substrates in which cleavage deviated from consecutive first order kinetics, the percent of reporting group liberated at the endpoint of digestion was used as a metric for comparison.

Compound	effectiveness as modifying agent in DPC-mediated siRNA delivery (Factor VII)	Relative F VII activity (Factor VII)	Relative Velocity, RAT S9 Extract (rat liver S9 extract)	Relative Velocity, HUMAN S9 Extract (human liver S9 extract)	Sample Velocity [1] [nmol/h]	Normalized Velocity [1] [nmol/h]	% Released at Endpoint (21 hr) [1] [%]	Relative Velocity, Lysosomal Extract [1]
PEG-ACitAP-OSu [Compound 46]	effective modifying agents	66 ± 28						
COCCOCCOCCOCCOCCOCCOCCOCCOCCOCCOCCOCCC(=O)N[C@@H](CCCNC(N)=O)C(=O)N[C@@H](C)C(=O)N1CCC[C@H]1C(=O)NCCNc1ccc([N+](=O)[O-])cc1 [Compound 42, PEG12-CitAP-AENA]			0.6	1.7				
NAG(OAc)3-FCitAP- AENA [Compound 30]			28.3	45.7	54.3	62.0	96.5	32.1
COCCOCCOCCOCCOCCOCCOCCOCCOCCOCCOCCOCCC(=O)N[C@@H](Cc1ccccc1)C(=O)N[C@@H](CCCNC(N)=O)C(=O)N[C@@H](Cc1ccccc1)C(=O)N1CCC[C@H]1C(=O)NCCNc1ccc([N+](=O)[O-])cc1 [Compound 23, PEG12-FCitFP-AENA] ({CH3O(CH2CH2O)11CH2CH2CO}-F[Cit]FP-X1)			100.0	100.0				
PEG-FCitAP-OSu [Compound 45b]	effective modifying agents	40 ± 06						
NAG(OAc)3-ACitAP- AENA [Compound 37]			3.3	7.1	11.8	13.5	44.2	7.0
PEG-CitAP-OSu [Compound 47]		97 ± 34						
